{
  "source": "patent US20050154037A1",
  "about": "“Methods of using zonisamide as an adjunctive therapy for partial seizures” (Eisai Co., Ltd., priority 2004, published 2005)",
  "key": {"[1]": {"set-up": "species or system patients", "settings": "human, in vivo", "excerpt": "The pharmacovigilance data that were collected, reviewed and analyzed provided the following information in respect of the incidence of NMS. To date, a total of 3 cases (two adult and one pediatric) fulfill the criteria of potential neuroleptic malignant syndrome. These cases were reviewed in detail for evaluation of possible safety signals. They were all deemed serious, and in all cases, the patients recovered with appropriate treatment.\nCases ZON1000813 and ZON1000929 are adult cases from Japan. In both cases the patients carried a diagnosis of Parkinson's disease (PD) and were enrolled in a double blind, placebo controlled […] study of zonisamide as a potential treatment for PD (Protocol AD81 ON-202-1). […]\nEstimates of exposure, based upon retail and mail order prescriptions, indicate that the number of unique patients taking zonisamide capsules in the U.S. is about 37,276 (total prescriptions per year/average number of prescriptions per patient per year less a calculated percentage decrease based on estimated annual dropouts) in the time between approval in 2000 and December 2002. […] Similarly, the incidences of NMS estimated herein are unlikely to be higher than calculated. Based on the exposure data and number of NMS cases, the incidence of NMS in the U.S. and Japan is calculated to be about 1:37,276 unique patients and 1:592,588 unique patients, respectively."}, "[2]": {"system": "GABA/benzodiazepine receptor ionophore complex", "settings": "cited from earlier work"}, "[3]": {"experiment": "NMS case reports: onset of symptoms after cessation of zonisamide therapy", "type": "in vivo, patients", "settings": "person with Parkinson's Disease", "excerpt": "Cases ZON1000813 and ZON1000929 are adult cases from Japan. In both cases the patients carried a diagnosis of Parkinson's disease (PD) and were enrolled in a double blind, placebo controlled […] study of zonisamide as a potential treatment for PD (Protocol AD81 ON-202-1). In both cases the development of NMS appeared after the withdrawal of zonisamide (from 2 days to 14 days, respectively). In the former case, the study blind was broken, and the patient was documented to be on study medication (zonisamide), while in the second case, the blind was not broken. Case ZON1000926 is a spontaneous pediatric case from the US. In all of these cases there were weak or no confounding factors present.\nA person carried a diagnosis of Parkinson's Disease (PD). The patient was enrolled in a double-blind, placebo controlled Phase II study designed to assess the potential utility of zonisamide in the treatment of PD. The patient's symptoms of NMS appeared 2 days after cessation of zonisamide therapy. Patients with PD are known to be at a rare, but increased risk for NMS. But NMS can occur spontaneously. See Ueda, et al., Neurology, Vol. 52, pp. 777-781, 1999.\nA person carried a diagnosis of Parkinson's Disease (PD). The patient was enrolled in a double-blind, placebo controlled Phase II study designed to assess the potential utility of zonisamide in the treatment of PD. […]"}, "carbonic anhydrase": {"system": "carbonic anhydrase", "settings": "relative to acetazolamide; called weak; cited from earlier work"}, "sodium channels": {"system": "sodium channels", "settings": "in vitro; cited from earlier work"}, "[4]": {"system": "voltage-dependent, transient inward currents (T-type Ca^2+ currents)", "settings": "in vitro; cited from earlier work"}, "[5]": {"system": "cultured mouse spinal cord neurons", "settings": "10-30 μg/mL, cited from earlier work"}, "[6]": {"system": "dopaminergic and serotonergic neurotransmission", "settings": "in vivo microdialysis; cited from earlier work"}, "hepatic enzyme": {"system": "hepatic enzyme", "settings": "cited from earlier work"}, "rat hippocampal slices": {"system": "rat hippocampal slices", "settings": "10-30 μg/mL; cited from earlier work"}},
  "data": [
    {"compound": "NS(=O)(=O)Cc1noc2ccccc12", "note": "[zonisamide, 1,2-benzisoxazole-3-methanesulfonamide]", "values": [
      {"measurement": "cases that fulfill the criteria of potential neuroleptic malignant syndrome", "setting": "[1]", "result": 3, "unit": "cases"},
      {"measurement": "incidence of NMS", "setting": "[1]", "result": "about 1:37,276 unique patients"},
      {"measurement": "changes in chloride flux", "setting": "[2]", "result": "does not produce changes in chloride flux"},
      {"measurement": "binding to the GABA/benzodiazepine receptor ionophore complex", "setting": "[2]; in an allosteric fashion", "result": "binds"},
      {"measurement": "appearance of NMS symptoms after cessation of zonisamide therapy", "setting": "[3]; Phase II study (Example 1)", "result": 2, "unit": "days"},
      {"measurement": "appearance of NMS symptoms after cessation of study medication", "setting": "[3]; Phase II study, blind not broken (Example 2)", "result": 14, "unit": "days"},
      {"measurement": "carbonic anhydrase inhibition compared to acetazolamide", "setting": "carbonic anhydrase", "result": "1/50"},
      {"measurement": "effect on sodium channels", "setting": "sodium channels", "result": "blocks sodium channels"},
      {"measurement": "effect on voltage-dependent, transient inward currents (T-type Ca2+ currents)", "setting": "[4]", "result": "reduces"},
      {"measurement": "synaptically-driven electrical activity", "setting": "[5]", "result": "suppresses"},
      {"measurement": "postsynaptic GABA or glutamate responses", "setting": "[5]; cultured mouse spinal cord neurons", "result": "without affecting"},
      {"measurement": "dopaminergic and serotonergic neurotransmission", "setting": "[6]", "result": "facilitates"},
      {"measurement": "hepatic enzyme induction", "setting": "hepatic enzyme", "result": "not known to be a hepatic enzyme inducer"},
      {"measurement": "neuronal or glial uptake of [3H]-GABA", "setting": "rat hippocampal slices", "result": "without affecting"}
    ]}
  ]
}
